Laboratory results taken from patent publication US9670175B2, “Protected succinates for enhancing mitochondrial ATP-production” (NEUROVIVE PHARMACEUTICALS AB, priority 2012, dated 2017).

Tests used:
[1] = tested on: rotenone-inhibited intact human platelets; experiment: mitochondrial complex II screening assay (high-resolution respirometry); assay type: cell-based; details: for Mitochondrial Respiration: Complex II-dependent respiration, rotenone-inhibited intact human platelets
Source text: FIG. 1 is a schematic figure of mitochondrial complex II screening assay. […] In the assay, mitochondrial function in intact cells is repressed with the respiratory complex I inhibitor rotenone. Drug candidates are compared with endogenous substrates (succinate) before and after permeabilization of the plasma membrane to evaluate bioenergetic enhancement or inhibition.
(§1) Human platelets were isolated from venous blood collected in K2EDTA vials through two centrifugation steps in room temperature. After 10 min at 300 g, platelet rich plasma was collected and transferred to new vials. 5 min at 4600 g yielded a platelet pellet that was resuspended in an appropriate amount of plasma. The cell concentration was determined with a Swelab Alfa Hematocytometer (Boule Medical AB, Stockholm, Sweden).
Measurement of mitochondrial respiration was performed in a high-resolution oxygraph (Oxygraph—2 k, Oroboros Instruments, Innsbruck, Austria) at a constant temperature of 37° C. Platelets were suspended in the 2 mL glass chamber at a concentration of 200-400*10^6 cells/mL.
(1) Initial screen, complex II-effect, was performed with isolated intact platelets in a buffer containing 110 mM sucrose, HEPES 20 mM, taurine 20 mM, K-lactobionate 60 mM, MgCl2 3 mM, KH2PO4 10 mM, EGTA 0.5 mM, BSA 1 g/l, pH 7.1. After baseline respiration with endogenous substrates was established, complex I was inhibited with Rotenone […]. Drug candidates dissolved in DMSO were titrated in steps to 100 μM, 500 μM and 5 mM final concentration. Subsequently, cell membranes were permeabilised with digitonin (1 mg/1*10^6 pit). After stabilized respiration, Succinate 10 mM was added and after the respiration stabilized the experiment was terminated by addition of the complex III inhibitor Antimycin at final concentration 1 μg/mL and the residual respiration measured. […] In the assay, mitochondrial function in intact cells is repressed with the respiratory complex I inhibitor rotenone. Drug candidates are compared with endogenous substrates before and after permeabilization of the plasma membrane to evaluate bioenergetic enhancement or inhibition.
(1) The ideal compound stimulates respiration in rotenone-inhibited intact cells at low concentration in the CII-screening protocol without inhibitory effect on succinate stimulated respiration after permeabilization. After inhibition of respiration with mitochondrial toxins, respiration should be halted. Please refer to FIG. 1. and the listing below.

intact human platelets = experiment: mitochondrial convergent respiration screening assay (FCCP-uncoupled, high-resolution respirometry); assay type: cell-based; details: control disodium succinate, FIGS. 3A-3C
Source text: FIG. 2 is a schematic figure of mitochondrial convergent respiration screening assay. It describes the protocol for evaluating the potency of novel cell-permeable mitochondrial substrates. In the assay, mitochondrial activity is stimulated by uncoupling the mitochondria with the protonophore FCCP. Drug candidates are titrated to obtain the level of maximum convergent (complex I- and complex II-derived) respiration. After rotenone addition, complex II-dependent stimulation is obtained. The complex III-inhibitor antimycin is added to evaluate non mitochondrial oxygen consumption. The reference substance is succinate.
as §1, with “Sweden). […]” for “Sweden).”
(2) In the second protocol, convergent respiration, the same respiration buffer and cell concentrations as described above was used. […] The experiment was terminated by addition of 2 μM Rotenone and 1 μg/mL Antimycin and residual respiration measured. […]

[2] = previously known related compounds
[3] = titrated to 100 μM, 500 μM and 5 mM

SMILES	Mitochondrial Respiration [1, 3]	also measured
CCOC(=O)CCC(=O)OCC [Diethyl succinate, reference compound]		activity in the assays exemplified [1]: inactive; Mitochondrial Respiration [1, 2]: −
COC(=O)CCC(=O)OC [Dimethyl succinate, reference compound]		activity in the assays exemplified [1]: inactive; Mitochondrial Respiration [1, 2]: −
COC(=O)CCC(=O)OCOC(=O)C(C)(C)C [Example 2, Succinic Acid 2,2-dimethyl-propionyloxymethyl Ester Methyl Ester]	++	
COC(=O)CCC(=O)OCOC(C)=O [Example 4, Succinic Acid Acetoxymethyl Ester Methyl Ester]	++	
CC(=O)OC(C)OC(=O)CCC(=O)OC(C)OC(C)=O (stereo not drawn) [Example 5, Succinic Acid bis-(1-acetoxy-ethyl)ester]	+++ (stimulation gradually increases and reaches maximum at ≦0.5 mM)	respiration (oxygen flux per unit) with stepwise titration compared to control (intact human platelets): increase in respiration
COC(=O)CCC(=O)OC(C)OC(C)=O (stereo not drawn) [Example 6, Succinic Acid 1-Acetoxy-Ethyl Ester Methyl Ester]	+	
CCC(OC(C)=O)OC(=O)CCC(=O)OC(CC)OC(C)=O (stereo not drawn) [Example 7, Succinic Acid bis-(1-acetoxy-propyl)ester]	++	
CCC(=O)OC(C)OC(=O)CCC(=O)OC(C)OC(=O)CC (stereo not drawn) [Example 8, Succinic Acid bis-(1-propionyloxy-ethyl)ester]	++	
O=C1CCC(=O)OCOCOCO1 [Example 9, 1,3,5,7-Tetraoxa-cycloundecane-8,11-dione]	+	
CCN(CC)C(=O)COC(=O)CCC(=O)OCOC(C)=O [Example 10, Succinic Acid Acetoxymethyl Ester Diethylcarbamoylmethyl Ester]	++	
CCOC(=O)OC(C)OC(=O)CCC(=O)OCC(=O)N(CC)CC (stereo not drawn) [Example 11, Succinic Acid Diethylcarbamoylmethyl Ester 1-Ethoxycarbonyloxy-Ethyl Ester]	(+)	
CCN(CC)C(=O)COC(=O)CCC(=O)OC(C)OC(C)=O (stereo not drawn) [Example 12, Succinic Acid 1-Acetoxy-Ethyl Ester Diethylcarbamoylmethyl Ester]	+	
CC(=O)OCOC(=O)CCC(=O)OC(C)OC(C)=O (stereo not drawn) [Example 13, Succinic Acid 1-Acetoxy-Ethyl Ester Acetoxymethyl Ester]	+++ (stimulation gradually increases and reaches maximum at ≦0.5 mM)	respiration (oxygen flux per unit) with stepwise titration compared to control (intact human platelets): increase in respiration
CC1(C)OC(=O)C(OC(=O)CCC(=O)OC2OC(C)(C)OC2=O)O1 (stereo not drawn) [Example 14, Succinic Acid bis-(2,2-dimethyl-5-oxo-[1,3]dioxolan-4-yl)ester]	+++ (stimulation gradually increases and reaches maximum at ≦0.5 mM)	
COC(=O)C(OC)OC(=O)CCC(=O)OC(OC)C(=O)OC (stereo not drawn) [Example 15, Succinic Acid bis-(methoxy-methoxycarbonyl-methyl)ester]	(+)	
CCOC(=O)OC(C)OC(=O)CCC(=O)OC(C)OC(C)=O (stereo not drawn) [Example 16, Succinic Acid 1-acetoxy-ethyl Ester 1-ethoxycarbonyloxy-ethyl Ester]	++	
CC(=O)OC(C)OC(=O)CCC(=O)OCOC(=O)CCC(=O)OC(C)OC(C)=O (stereo not drawn) [Example 17, Succinic Acid 3-(1-acetoxy-ethoxycarbonyl)-propionyloxymethyl Ester 1-acetoxy-ethyl Ester]	+++ (stimulation gradually increases and reaches maximum at ≦0.5 mM)	
CC(=O)OCOC(=O)CCC(=O)OCOC(=O)CCC(=O)OCOC(C)=O [Example 18, Succinic Acid 3-acetoxymethoxycarbonyl-propionyloxymethyl Ester Acetoxymethyl Ester]	+++ (stimulation gradually increases and reaches maximum at ≦0.5 mM)	
COC(=O)CCC(=O)O [Monomethyl succinate, reference compound]		activity in the assays exemplified [1]: inactive; Mitochondrial Respiration [1, 2]: −
